Reference: patent US12257247B2 (Monte Rosa Therapeutics AG, priority 2023, dated 2025)
Read-outs that look alike come from different tables or passages of the source.

Molecular target: T1, VAV1 (Homo sapiens, UniProt P15498+Q96SW2)
T1 construct: A heterozygous VAV1 C-terminal HiBiT knock-in pool was generated at Monte Rosa Therapeutics from a clonal Jurkat cell; endogenous in cells; host or cells: Jurkat clone stably expressing LgBiT, homozygous GSPT1-G575N; heterozygous VAV1-HiBiT knock-in pool
Test: VAV1 degradation activity, VAV1-HiBiT knock-in Jurkat luminescence assay (Example A, Table 1)
Type: cell-based
Details: VAV1-HiBiT knock-in Jurkat cells, luminescence read at 6 and 24 hours; for Dmax: Jurkat
Outline: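 Luminescence was measured at 6 and 24 h after adding compound (10 μM stock) to VAV1-HiBiT knock-in Jurkat cells, which had been pre-incubated ~16 h at 37° C. in RPMI/10% FBS containing Endurazine. EC50 values came from control-normalised responses fitted to a 3-parameter logistic model with hillslope fixed at 1.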

[1] = read-out: VAV1 DC50 (nM), class

SMILES | Dmax (read-out: VAV1 Dmax %) [%] | Dmax (read-out: VAV1 Dmax %, class) [%] | DC50 (read-out: VAV1 DC50) [nM] | DC50 [1] [nM]
O=C1CCC(c2cccc(-c3ccc(N4CCC5(COC5)C4=O)cc3)c2Cl)C(=O)N1 (centres unmarked) [Compound 358, 3-(2-chloro-4′-(5-oxo-2-oxa-6-azaspiro[3.4]octan-6-yl)-[1,1′-biphenyl]-3-yl)piperidine-2,6-dione] | 44.3 | < 60 | ≥ 10000 | > 1000
O=C1CCC(c2cccc(-c3ccc(N4C(=O)OCCC45CCC5)nc3)c2Cl)C(=O)N1 (centres unmarked) [Compound 359, 3-(2-chloro-3-(6-(6-oxo-7-oxa-5-azaspiro-[3.5]nonan-5-yl)pyridin-3-yl)phenyl)piperidine-2,6-dione] | 95 | > 90 | 13.3 | ≤ 100
O=C1CCC(c2cccc(-c3ccc(Oc4ncccn4)cc3)c2Cl)C(=O)N1 (centres unmarked) [Compound 360, 3-(2-chloro-4′-(pyrimidin-2-yloxy)-[1,1′-biphenyl]-3-yl)piperidine-2,6-dione] | 96.5 | > 90 | 6.85 | ≤ 100
O=C1CCC(c2cc(F)cc(-c3ccc(-n4ccccc4=O)cc3)c2Cl)C(=O)N1 (centres unmarked) [Compound 361, 3-(2-chloro-5-fluoro-4′-(2-oxopyridin-1(2H)-yl)-[1,1′-biphenyl]-3-yl)piperidine-2,6-dione] | 84.4 | 60 to 90 | 76.4 | ≤ 100
O=C1CCC(c2cccc(-c3cnc(N4C(=O)CCCC45CC5)c(F)c3)c2Cl)C(=O)N1 (centres unmarked) [Compound 362, 3-(2-chloro-3-(5-fluoro-6-(5-oxo-4-azaspiro[2.5]octan-4-yl)pyridin-3-yl)phenyl)piperidine-2,6-dione] | 87.5 | 60 to 90 | 69.6 | ≤ 100
Cn1ccc(Cn2c(=O)n(C)c3cc(-c4cccc(C5CCC(=O)NC5=O)c4Cl)ccc32)n1 (centres unmarked) [Compound 363, 3-(2-chloro-3-(3-methyl-1-((1-methyl-1H-pyrazol-3-yl)methyl)-2-oxo-2,3-dihydro-1H-benzo[d]imidazol-5-yl)phenyl)piperidine-2,6-dione] | 97.1 | > 90 | 4.86 | ≤ 100
O=C1CCC(c2cccc(-c3cnc(N4C(=O)CCC45CC5)c(F)c3)c2Cl)C(=O)N1 (centres unmarked) [Compound 364, 3-(2-chloro-3-(5-fluoro-6-(5-oxo-4-azaspiro[2.4]heptan-4-yl)pyridin-3-yl)phenyl)piperidine-2,6-dione] | 71.7 | 60 to 90 | 234 | 100 to 1000
O=C1CCC(c2cccc(-c3cnc(N4C(=O)CCC45CCC5)c(F)c3)c2Cl)C(=O)N1 (centres unmarked) [Compound 365, 3-(2-chloro-3-(5-fluoro-6-(6-oxo-5-azaspiro[3.4]octan-5-yl)pyridin-3-yl)phenyl)piperidine-2,6-dione] | 88 | 60 to 90 | 55 | ≤ 100
CN1CCC2(CC2)N(c2ccc(-c3cccc(C4CCC(=O)NC4=O)c3Cl)cc2)C1=O (centres unmarked) [Compound 366, 3-(2-chloro-4′-(6-methyl-5-oxo-4,6-diazaspiro[2.5]octan-4-yl)-[1,1′-biphenyl]-3-yl)piperidine-2,6-dione] | 97.8 | > 90 | 1.87 | ≤ 100
O=C1CCC(c2cccc(-c3cnc(N4CCCCC4=O)c(F)c3)c2Cl)C(=O)N1 (centres unmarked) [Compound 369, 3-(2-chloro-3-(5-fluoro-6-(2-oxopiperidin-1-yl)pyridin-3-yl)phenyl)piperidine-2,6-dione] | 69.5 | 60 to 90 | 331 | 100 to 1000
O=C1CCC(c2cccc(-c3cnc(Cc4ncco4)c(F)c3)c2Cl)C(=O)N1 (centres unmarked) [Compound 370, 3-(2-chloro-3-(5-fluoro-6-(oxazol-2-ylmethyl)pyridin-3-yl)phenyl)piperidine-2,6-dione] | 58.1 | < 60 | 1570 | > 1000
